# Tests used:
# Assay in all cases: relative viability (nuclei count vs DMSO), 5 days (fraction); higher = more cells survive
# EKVX = system: EKVX
# Summary of the method: (§1)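 Relative viability is defined as nuclei in treated wells over nuclei in vehicle wells. Duplicate plates were run and medians reported. Lung cancer cell lines in 1536-well plates were dosed by pin tool one day after seeding, with one drug or with a fixed anchor-drug dose plus five library-drug doses (not always all listed) in √10 steps, and nuclei were counted after 5 days.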
# HCC-15 = system: HCC-15
# Summary of the method: as §1
# HCC-44 = system: HCC-44
# Summary of the method: as §1
# LCLC-103H = system: LCLC-103H
# Summary of the method: as §1
# NCI-H1395 = system: NCI-H1395
# Summary of the method: as §1
# NCI-H1623 = system: NCI-H1623
# Summary of the method: as §1
# NCI-H1755 = system: NCI-H1755
# Summary of the method: as §1
# UMC-11 = system: UMC-11
# Summary of the method: as §1
compound,measurement,setting,value
Nc1ccn([C@@H]2O[C@H](CO)[C@@H](O)[C@@H]2O)c(=O)n1 [Cytarabine] + CCNC(=O)c1noc(-c2cc(C(C)C)c(O)cc2O)c1-c1ccc(CN2CCOCC2)cc1 [Luminespib] (partner 0.01 µM),relative viability,EKVX; first compound 0.005 µM,0.918
same,relative viability,EKVX; first compound 0.01581 µM,0.743
same,relative viability,EKVX; first compound 0.05 µM,0.736
same,relative viability,EKVX; first compound 0.1581 µM,0.287
same,relative viability,EKVX; first compound 0.5 µM,0.186
same,relative viability,HCC-15; first compound 0.005 µM,0.328
same,relative viability,HCC-15; first compound 0.01581 µM,0.416
same,relative viability,HCC-15; first compound 0.05 µM,0.354
same,relative viability,HCC-15; first compound 0.1581 µM,0.428
same,relative viability,HCC-15; first compound 0.5 µM,0.267
same,relative viability,HCC-44; first compound 0.005 µM,0.949
same,relative viability,HCC-44; first compound 0.01581 µM,1.05
same,relative viability,HCC-44; first compound 0.05 µM,0.403
same,relative viability,HCC-44; first compound 0.1581 µM,0.257
same,relative viability,HCC-44; first compound 0.5 µM,0.185
same,relative viability,LCLC-103H; first compound 0.005 µM,0.96
same,relative viability,LCLC-103H; first compound 0.01581 µM,1.05
same,relative viability,LCLC-103H; first compound 0.05 µM,1.03
same,relative viability,LCLC-103H; first compound 0.1581 µM,0.909
same,relative viability,LCLC-103H; first compound 0.5 µM,0.947
same,relative viability,NCI-H1395; first compound 0.005 µM,0.544
same,relative viability,NCI-H1395; first compound 0.01581 µM,0.61
same,relative viability,NCI-H1395; first compound 0.05 µM,0.437
same,relative viability,NCI-H1395; first compound 0.1581 µM,0.366
same,relative viability,NCI-H1395; first compound 0.5 µM,0.346
same,relative viability,NCI-H1623; first compound 0.005 µM,0.321
same,relative viability,NCI-H1623; first compound 0.01581 µM,0.361
same,relative viability,NCI-H1623; first compound 0.05 µM,0.316
same,relative viability,NCI-H1623; first compound 0.1581 µM,0.232
same,relative viability,NCI-H1623; first compound 0.5 µM,0.234
same,relative viability,NCI-H1755; first compound 0.005 µM,0.879
same,relative viability,NCI-H1755; first compound 0.01581 µM,0.222
same,relative viability,NCI-H1755; first compound 0.05 µM,0.328
same,relative viability,NCI-H1755; first compound 0.1581 µM,0.274
same,relative viability,NCI-H1755; first compound 0.5 µM,0.378
same,relative viability,UMC-11; first compound 0.005 µM,0.792
same,relative viability,UMC-11; first compound 0.01581 µM,0.591
same,relative viability,UMC-11; first compound 0.05 µM,0.495
same,relative viability,UMC-11; first compound 0.1581 µM,0.357
same,relative viability,UMC-11; first compound 0.5 µM,0.225
Nc1ccn([C@@H]2O[C@H](CO)[C@@H](O)[C@@H]2O)c(=O)n1 [Cytarabine] + Cc1nc(Nc2ncc(C(=O)Nc3c(C)cccc3Cl)s2)cc(N2CCN(CCO)CC2)n1 [Dasatinib] (partner 0.075 µM),relative viability,EKVX; first compound 0.005 µM,0.567
same,relative viability,EKVX; first compound 0.01581 µM,0.416
same,relative viability,EKVX; first compound 0.05 µM,0.456
same,relative viability,EKVX; first compound 0.1581 µM,0.357
same,relative viability,EKVX; first compound 0.5 µM,0.273
same,relative viability,HCC-15; first compound 0.005 µM,0.559
same,relative viability,HCC-15; first compound 0.01581 µM,0.679
same,relative viability,HCC-15; first compound 0.05 µM,0.683
same,relative viability,HCC-15; first compound 0.1581 µM,0.479
same,relative viability,HCC-15; first compound 0.5 µM,0.401
same,relative viability,LCLC-103H; first compound 0.005 µM,0.449
same,relative viability,LCLC-103H; first compound 0.01581 µM,0.507
same,relative viability,LCLC-103H; first compound 0.05 µM,0.486
same,relative viability,LCLC-103H; first compound 0.1581 µM,0.353
same,relative viability,LCLC-103H; first compound 0.5 µM,0.445
same,relative viability,NCI-H1395; first compound 0.005 µM,0.385
same,relative viability,NCI-H1395; first compound 0.01581 µM,0.34
same,relative viability,NCI-H1395; first compound 0.05 µM,0.374
same,relative viability,NCI-H1395; first compound 0.1581 µM,0.319
same,relative viability,NCI-H1395; first compound 0.5 µM,0.282
same,relative viability,NCI-H1623; first compound 0.005 µM,0.479
same,relative viability,NCI-H1623; first compound 0.01581 µM,0.449
same,relative viability,NCI-H1623; first compound 0.05 µM,0.286
same,relative viability,NCI-H1623; first compound 0.1581 µM,0.471
same,relative viability,NCI-H1623; first compound 0.5 µM,0.291
same,relative viability,NCI-H1755; first compound 0.005 µM,0.439
same,relative viability,NCI-H1755; first compound 0.01581 µM,0.316
same,relative viability,NCI-H1755; first compound 0.05 µM,0.372
same,relative viability,NCI-H1755; first compound 0.1581 µM,0.257
same,relative viability,NCI-H1755; first compound 0.5 µM,0.222
same,relative viability,UMC-11; first compound 0.005 µM,0.279
same,relative viability,UMC-11; first compound 0.01581 µM,0.298
same,relative viability,UMC-11; first compound 0.05 µM,0.379
same,relative viability,UMC-11; first compound 0.1581 µM,0.2
same,relative viability,UMC-11; first compound 0.5 µM,0.169
CC(=O)O[C@@]12CO[C@@H]1C[C@H](O)[C@@]1(C)C(=O)[C@H](O)C3=C(C)[C@@H](OC(=O)[C@H](O)[C@@H](NC(=O)OC(C)(C)C)c4ccccc4)C[C@@](O)([C@@H](OC(=O)c4ccccc4)[C@H]21)C3(C)C [Docetaxel] + CCNC(=O)c1noc(-c2cc(C(C)C)c(O)cc2O)c1-c1ccc(CN2CCOCC2)cc1 [Luminespib] (partner 0.01 µM),relative viability,EKVX; first compound 0.0002 µM,0.85
same,relative viability,EKVX; first compound 0.000632 µM,0.795
same,relative viability,EKVX; first compound 0.002 µM,0.45
same,relative viability,EKVX; first compound 0.006325 µM,0.305
same,relative viability,EKVX; first compound 0.02 µM,0.161
same,relative viability,HCC-15; first compound 0.0002 µM,0.35
same,relative viability,HCC-15; first compound 0.000632 µM,0.303
same,relative viability,HCC-15; first compound 0.002 µM,0.173
same,relative viability,HCC-15; first compound 0.006325 µM,0.182
same,relative viability,HCC-15; first compound 0.02 µM,0.12
same,relative viability,HCC-44; first compound 0.0002 µM,0.986
same,relative viability,HCC-44; first compound 0.000632 µM,0.901
same,relative viability,HCC-44; first compound 0.002 µM,0.35
same,relative viability,HCC-44; first compound 0.006325 µM,0.289
same,relative viability,HCC-44; first compound 0.02 µM,0.171
same,relative viability,LCLC-103H; first compound 0.0002 µM,0.885
same,relative viability,LCLC-103H; first compound 0.000632 µM,0.835
same,relative viability,LCLC-103H; first compound 0.002 µM,0.498
same,relative viability,LCLC-103H; first compound 0.006325 µM,0.443
same,relative viability,LCLC-103H; first compound 0.02 µM,0.218
same,relative viability,NCI-H1395; first compound 0.0002 µM,0.699
same,relative viability,NCI-H1395; first compound 0.000632 µM,0.771
same,relative viability,NCI-H1395; first compound 0.002 µM,0.496
same,relative viability,NCI-H1395; first compound 0.006325 µM,0.391
same,relative viability,NCI-H1395; first compound 0.02 µM,0.286
same,relative viability,NCI-H1623; first compound 0.0002 µM,0.543
same,relative viability,NCI-H1623; first compound 0.000632 µM,0.405
same,relative viability,NCI-H1623; first compound 0.002 µM,0.455
same,relative viability,NCI-H1623; first compound 0.006325 µM,0.353
same,relative viability,NCI-H1623; first compound 0.02 µM,0.281
same,relative viability,NCI-H1755; first compound 0.0002 µM,0.427
same,relative viability,NCI-H1755; first compound 0.000632 µM,0.492
same,relative viability,NCI-H1755; first compound 0.002 µM,0.271
same,relative viability,NCI-H1755; first compound 0.006325 µM,0.218
same,relative viability,NCI-H1755; first compound 0.02 µM,0.151
same,relative viability,UMC-11; first compound 0.0002 µM,1.02
same,relative viability,UMC-11; first compound 0.000632 µM,0.917
same,relative viability,UMC-11; first compound 0.002 µM,0.406
same,relative viability,UMC-11; first compound 0.006325 µM,0.271
same,relative viability,UMC-11; first compound 0.02 µM,0.183

# Source: the supplement of paper PMC10307832
